Experimental data from patent publication EP0062704A1, “Cyclopropanecarboxylic-acid ester as an agent in the fight against larves of the Gasterophilidae family in Equidae” (HOECHST AKTIENGESELLSCHAFT, priority 1980, dated 1982).
Marks after values point to notes of the source that are not given here.

Columns and labels:
[1] = test system: Larven III der Magenbremse, Gasterophilus intestinalis; test: In vitro test on larvae III of Gasterophilus intestinalis (5 min immersion, mortality count); details: 10 larvae immersed 5 min in 0,1 % active dilution, kept at about 37°C
Description: Beispiel 2 : In vitro Test an Larven von Gasterophilus intestinalis
Die Verbindungen (S)-a-Cyan-3-phenoxybenzyl(1R)-cis-3-(2,2-dibromvinyl)-2,2-dimethylcyclopropancarboxylat, nachfolgend bezeichnet als Verbindung A, (S)-a-Cyan-3-phenoxybenzyl (1R)-cis-3-(2,2-dichlorvinyl)-2,2-dimethylcyclopropancarboxylat, nachfolgend bezeichnet als Verbindung B, (S)-o-Cyan-3-phenoxybenzyl(1R)-cis-3-(2', 2'-dichlor-1',2'-dibromäthyl)-2,2-dimethylcyclopropancarboxylat, nachfolgend bezeichnet als Verbindung C, werden in Zubereitungen nach Beispiel 1 a) so in Wasser verdünnt, daß die Verdünnungen 0,1 % der Wirkstoffe enthalten. Zum Vergleich wird Dimethyl-2,2,2-trichloro-1-hydroxyäthyl-phosphonat (Trichlorfon) in derselben Verdünnung verwendet.
Larven III der Magenbremse, Gasterophilus intestinalis, werden aus dem Magen eines geschlachteten Pferdes entnommen. Jeweils zehn Larven werden in Bechergläsern in die Verdünnungen für 5 Minuten eingetaucht. Zur Kontrolle werden 10 Larven in Wasser eingetaucht. Danach werden die Larven auf Filterpapier getrocknet und in Behälter aus Styropor verbracht, die unter einer Wärmelampe bei etwa 37°C aufbewahrt werden. Nach 1, 6, 24, 48, 72, 96 und 120 Stunden werden alle Larven untersucht und deren Mortalität protokolliert.

[2] = test system: Gasterophilus intestinalis; test: In vivo test in horses infested with stomach bots: G. intestinalis; details: 10 mg/kg by nasogastric tube; for %-Wirksamkeit: expelled and dead larvae as percent of all larvae present, horse; for noch im Magen festgeheftet: larvae at necropsy on day 7, horse; for Zahl der Larven im Kot Total: total of days 1-7, horse
Experimental: (§1) Beispiel 3: In vivo-Prüfung an Pferden mit Magendasselbefall
(§2) Zwei Pferde mit Körpergewichten von 190 kg und 142 kg werden mit den Verbindungen A bzw. C aus Beispiel II behandelt. Die Dosis beträgt 10 mg/kg Körpergewicht. Die sich aus der Dosis und der Konzentration der Arzneizubereitung nach Beispiel 2 zu errechnende Menge der Zubereitung wird im Volumenverhältnis 1 : 1 mit Wasser verdünnt und den Pferden mittels Nasenschlundsonde verabreicht.
(§3) Nach der Behandlung werden die Pferde in Einzelboxen aufgestellt. […] Vorhandene Dassellarven werden gezählt und ihre Artzugehörigkeit bestimmt. Am siebten Tag nach der Behandlung werden die Pferde getötet und der Magen-Darmtrakt auf das Vorhandensein noch angehefteter und toter Dassellarven untersucht.
(§4) Die Zahl der abgegangenen und toten Larven wird auf die Gesamtzahl vorhandener Larven prozentual bezogen und ihr Prozentsatz als "% Wirksamkeit" bezeichnet. Somit besagen 100 %, daß alle und 0 %, daß keine Larven abgetötet und abgetrieben werden.

Gasterophilus nasalis = test: In vivo test in horses infested with stomach bots: G. nasalis; details: 10 mg/kg by nasogastric tube; for %-Wirksamkeit: expelled and dead larvae as percent of all larvae present, horse; for noch im Magen festgeheftet: larvae at necropsy on day 7, horse; for Zahl der Larven im Kot Total: total of days 1-7, horse
Experimental: as §1, §2, §3, §4

SMILES	Zahl toter Larven Stunden nach Behandlung ([1]; 1 h after treatment)	Zahl toter Larven Stunden nach Behandlung ([1]; 6 h after treatment)	Zahl toter Larven Stunden nach Behandlung ([1]; 24 h after treatment)	Zahl toter Larven Stunden nach Behandlung ([1]; 48 h after treatment)	Zahl toter Larven Stunden nach Behandlung ([1]; 72 h after treatment)	Zahl toter Larven Stunden nach Behandlung ([1]; 96 h after treatment)	Zahl toter Larven Stunden nach Behandlung ([1]; 120 h after treatment)	Zahl der Larven im Kot an den Tagen nach der Behandlung ([2]; day 1, horse)	Zahl der Larven im Kot an den Tagen nach der Behandlung ([2]; day 2, horse)	Zahl der Larven im Kot an den Tagen nach der Behandlung ([2]; day 3, horse)	Zahl der Larven im Kot an den Tagen nach der Behandlung ([2]; day 4, horse)	Zahl der Larven im Kot an den Tagen nach der Behandlung ([2]; day 5, horse)	Zahl der Larven im Kot an den Tagen nach der Behandlung ([2]; day 6, horse)	Zahl der Larven im Kot an den Tagen nach der Behandlung ([2]; day 7, horse)	%-Wirksamkeit [2]	noch im Magen festgeheftet [2]	Zahl der Larven im Kot Total [2]	Zahl der Larven im Kot an den Tagen nach der Behandlung (Gasterophilus nasalis; day 1, horse)	Zahl der Larven im Kot an den Tagen nach der Behandlung (Gasterophilus nasalis; day 2, horse)	Zahl der Larven im Kot an den Tagen nach der Behandlung (Gasterophilus nasalis; day 3, horse)	other results
COP(=O)(OC)C(O)C(Cl)(Cl)Cl (centres unmarked) [Trichlorfon, Dimethyl-2,2,2-trichloro-1-hydroxyäthyl-phosphonat, reference compound]	6*	7*	4*	5*	9*	6*	6*	–	–	–	–	–	–	–	–	–	–	–	–	–	–
CC1(C)[C@H](C(=O)O[C@H](C#N)c2cccc(Oc3ccccc3)c2)[C@@H]1C=C(Br)Br [Verbindung A, (S)-a-Cyan-3-phenoxybenzyl(1R)-cis-3-(2,2-dibromvinyl)-2,2-dimethylcyclopropancarboxylat]	10	10	10	10	10	10	10	2	16	18	5	0	0	0	93%	3	41	1	4	1	Zahl der Larven im Kot an den Tagen nach der Behandlung (Gasterophilus nasalis; day 4, horse): 0; Zahl der Larven im Kot an den Tagen nach der Behandlung (Gasterophilus nasalis; day 5, horse): 0; Zahl der Larven im Kot an den Tagen nach der Behandlung (Gasterophilus nasalis; day 6, horse): 0; Zahl der Larven im Kot an den Tagen nach der Behandlung (Gasterophilus nasalis; day 7, horse): 0; %-Wirksamkeit (Gasterophilus nasalis): 100%; noch im Magen festgeheftet (Gasterophilus nasalis): 0; Zahl der Larven im Kot Total (Gasterophilus nasalis): 6
CC1(C)[C@H](C(=O)O[C@H](C#N)c2cccc(Oc3ccccc3)c2)[C@@H]1C=C(Cl)Cl [Verbindung B, (S)-a-Cyan-3-phenoxybenzyl (1R)-cis-3-(2,2-dichlorvinyl)-2,2-dimethylcyclopropancarboxylat]	10	10	10	10	10	10	10	–	–	–	–	–	–	–	–	–	–	–	–	–	–
CC1(C)[C@H](C(=O)O[C@H](C#N)c2cccc(Oc3ccccc3)c2)[C@@H]1C(Br)C(Cl)(Cl)Br (stereo partly drawn) [Verbindung C, (S)-o-Cyan-3-phenoxybenzyl(1R)-cis-3-(2', 2'-dichlor-1',2'-dibromäthyl)-2,2-dimethylcyclopropancarboxylat]	4	10	10	10	10	10	10	1	2	8	10	7	2	0	100%	0	30	0	3	7	Zahl der Larven im Kot an den Tagen nach der Behandlung (Gasterophilus nasalis; day 4, horse): 1; Zahl der Larven im Kot an den Tagen nach der Behandlung (Gasterophilus nasalis; day 5, horse): 0; Zahl der Larven im Kot an den Tagen nach der Behandlung (Gasterophilus nasalis; day 6, horse): 0; Zahl der Larven im Kot an den Tagen nach der Behandlung (Gasterophilus nasalis; day 7, horse): 0; %-Wirksamkeit (Gasterophilus nasalis): 100%; noch im Magen festgeheftet (Gasterophilus nasalis): 0; Zahl der Larven im Kot Total (Gasterophilus nasalis): 11
